Tests used:
[1] = test system: Hep G2 (human hepatocarcinoma) line; experiment: Total cholesterol levels in hepatic cell line; type: cell-based; settings: HepG2, acid compounds, 20 hours, absence of FBS
Method: To carry out this assay, the compounds were activated with NaOH until the lactone form was completely opened.
Both the Hep G2 (human hepatocarcinoma) line and the SK-N-MC (human neuroblastoma) line were obtained from the American Type Culture Collection (ATCC no. HB-8065 and HTB-10 respectively). In all cases strict rules of sterility were followed and the manipulation was performed in class II biological safety cabinets following European standard EN 12469. The cells maintained in passage were seeded in 96-well plates in MEM supplemented with 10% FBS, 2 mM L-glutamine, 1 mM sodium pyruvate, 0.1 mM non-essential amino acids and 0.05 mg/mL gentamicin. In the case of HepG2, 4×10^4 cells/well were seeded and in the case of SK-N-MC 5×10^4 cells/well were seeded. After 24 hours had elapsed from the seeding, the cells were deprived of FBS for 8 hours. The cells were then incubated with the treatments at various concentrations for 20 hours. After the incubation period, the cells were washed with PBS and lysed with a phosphate buffer with 0.5% Triton X-100. […]
The total cholesterol was quantified by means of enzymatic and fluorometric techniques. […] The fluorescence intensity was determined at 530 nm of excitation and 580 nm of emission by means of a fluorometer. The results were normalized by protein, which was determined by means of the BCA technique.

in vitro = settings: PAMPA, pH 7.4
[2] = test system: C57BL6 mice treated with Triton 1339 (Tyloxapol); experiment: Hypocholesterolemic effect in induced hyperlipidemia model (Triton 1339); type: in vivo; settings: 50 mg/kg i.p.
Method: In order to conduct the experiment on the fasting animals, blood was extracted by ocular puncture. The plasma was obtained from said blood, in which plasma total cholesterol levels and levels of its fractions were determined prior to administration of the substances under study. […] After thirty minutes, the animals were intraperitoneally inoculated with 50 mg/kg of each of the test compounds. Seven animals were treated with the vehicle alone and were considered the control group. […] Finally, a third group of seven mice received 50 mg/Kg of NST0037. Twenty-four hours after the treatments, blood was again extracted from the fasting animals and the plasma was obtained from said blood.

zebrafish embryo = experiment: Biosafety in zebrafish embryo (OECD C15, semi-static, 9 days); type: in vivo, Danio rerio
Method: The fertilized eggs were obtained by natural mating of the zebrafish (Danio rerio, AB strain). A total of 8-10 pairs were used for each cross and a total of 200-250 eggs were generated on average per pair.
To assure exposure in the earliest stages of development, the eggs were quickly transferred (a minimum of 50 per condition) to another Petri dish with solutions of the compounds to be tested. […] Each experiment was performed in triplicate.
The studies were conducted in a total of 9 days post-fertilization, in which the treatment was renewed every day, thus conducting a semi-static assay.
The results at the end of the experiment allowed collecting the percentage of healthy larvae which reach the end of the experiment, defined as the number of live larvae and without symptoms of external physiopathological anomalies (morphological and/or behavioral), this being a parameter determining the biosafety of a substance under study and is complementary to the survival rates and to the LD50.
The anomalies recorded in the study are described below: • Intracranial thrombosis: a clot inside the blood vessel, in this case of any cerebral vessel. • Cardiac thrombosis: occurs in a cardiac vessel. • Cardiac edema (or hydrops): accumulation of fluid in the intercellular tissue space and also in the cavities of the organism. In the case of the heart, it causes the accumulation of fluid in the pericardial sac. • Malformation: a noticeable difference in the shape of the body or part of the body, or organ of the body (internal or external) compared with the average shape of the part in question.
The cardiac rhythm of the zebrafish embryos-larva was determined by means of visual analysis in stereomicroscopy, determining the heartbeat with the aid of a manual counter for a period of one minute.

Q: Which “reduction of total cholesterol levels” value [1] does the source give for `CCC(CC)C(=O)O[C@H]1C[C@@H](C)C=C2C=C[C@H](C)[C@H](CC[C@@H]3C[C@@H](O)CC(=O)O3)[C@H]21` [NST0037, (1S,2S,6R,8S,8aR)-1,2,6,7,8,8a-hexahydro-3,7-dimethyl-8-[2-[(2R,4R)-tetrahydro-4-hydroxy-6-oxo-2H-pyran-2-yl]ethyl]-1-naphthalenyl-2-ethyl-butyrate] here?
A: more potent than simvastatin

Q: And the Papp at 18 h, 100 μM (in vitro)?
A: 3.1 ×10⁻⁶ cm/s

Q: What about the HDL-c levels ([2]; 24 hours after Triton 1339) of the same compound?
A: not being changed

Q: And the LDL-c levels ([2]; 24 hours after Triton 1339)?
A: reduction being statistically significant

Q: And the VLDL-c levels ([2]; 24 hours after Triton 1339)?
A: Only simvastatin reduced

Q: What about the “esterified cholesterol (EC) levels” value ([2]; 24 hours after Triton 1339) of the same compound?
A: reduced

Q: What about the “free cholesterol (FC) levels” value ([2]; 24 hours after Triton 1339) of the same compound?
A: reduced the levels of this fraction in a similar manner

Q: And the total cholesterol increase ([2]; 24 hours after Triton 1339 500 mg/kg)?
A: hypocholesterolemic effect, being statistically significant

Q: And the “percentage of larvae with malformations or anomalous appearance” value (zebrafish embryo; 0.2 mg/L)?
A: did not show significant toxicological effects

Q: What about the “percentage of healthy larvae at the end of the experiment” value (zebrafish embryo; 0.06 and 0.2 mg/L, 9 days) of the same compound?
A: more healthy larvae reaching the end of the experiment

Q: What about the LD50 (zebrafish embryo; first days post-treatment (up to day 2)) of the same compound?
A: above the maximum dose evaluated

Q: What about the “survival rate of embryos-larvae” value (zebrafish embryo; high dose (2 mg/L, FIG. 24)) of the same compound?
A: caused the mortality of all the embryos of the assay

Q: And the “reduction of the cardiac rhythm vs controls” value (zebrafish embryo; increasing doses up to 2 mg/L, 72 hours post-treatment)?
A: statistically significant only at the dose of 2 mg/L

Q: And the “survival rate of embryos-larvae vs controls” value (zebrafish embryo; lower dose (FIG. 25: NST0037 0.2 mg/L))?
A: did not cause a statistically significant reduction of the survival rate
